Reference: US20250325535A1, “IDENTIFICATION OF NOVEL SMALL-MOLECULE INHIBITORS OF SARS-CoV-2 BY CHEMICAL GENETICS” (The University of Hong Kong, priority 2024, published 2025)
pIC50: −log10 of the molar value.

Columns and labels:
[1] = system: 3CLpro S301P recombinant SARS-CoV-2; assay type: cell-based; details: for pIC50: read-out: IC50 (plaque formation assay)
[2] = system: SARS-CoV-2 variants and other human coronaviruses; experiment: microbe, parasite or virus in culture; assay type: cell-based; details: Severe acute respiratory syndrome coronavirus 2, read-out: IC50 (antiviral)
[3] = system: SARS-COV-2 Alpha variant (B.1.1.7); assay type: in vivo, K18-hACE2 transgenic mice; details: n=5, IP once daily; 172 50 mg/kg, Nirmatrelvir 200 mg/kg; vehicle mice died day 5-6

CC(C)(C)[C@H](NC(=O)C(F)(F)F)C(=O)N1C[C@H]2[C@@H]([C@H]1C(=O)N[C@H](C#N)C[C@@H]1CCNC1=O)C2(C)C [Nirmatrelvir]
pIC50 [1]: 7.70
pIC50 [2]: 7.49 to 8.35
time of death (survival) [3]: one mouse died on day 6, and all remaining mice died on day 8

CCOc1cc2ncc(C#N)c(Nc3ccc(F)c(Cl)c3)c2cc1NC(=O)/C=C/CN(C)C [Pelitinib]
inhibition of virus replication [1]: not the mutant virus
pIC50 [1]: 5.14
